# Experimental data taken from US20210230179A1, “THIENO[2,3-B]PYRIDINE DERIVATIVES AS EPAC INHIBITORS AND THEIR PHARMACEUTICAL USES” (INSTITUT NATIONAL DE LA SANTE ET DE LA RECHERCHE MEDICALE …, priority 2018, published 2021).
# Substitutions are numbered along the chain they refer to.
# What was measured:
# [1] = biological target: T1, Epac1-BRET sensor CAMYEL (Homo sapiens, UniProt O95398, F824A/T823A); assay: CAMYEL Epac1-BRET sensor assay (cAMP-induced conformational change); assay type: biochemical; conditions: for inhibitory activity on Epac1 activation, structure-activity comments: CAMYEL assay, compared with AM-001; for remaining activity at 20 µM: read-out: BRET ratio variation (% of 100 μM cAMP alone)
# T1 construct: made in house; host or cells: Prokaryotic expression vector pQE30-CAMYEL; used as cell extract
# T1 sequence (O95398 191-923 T823A/F824A limits assumed): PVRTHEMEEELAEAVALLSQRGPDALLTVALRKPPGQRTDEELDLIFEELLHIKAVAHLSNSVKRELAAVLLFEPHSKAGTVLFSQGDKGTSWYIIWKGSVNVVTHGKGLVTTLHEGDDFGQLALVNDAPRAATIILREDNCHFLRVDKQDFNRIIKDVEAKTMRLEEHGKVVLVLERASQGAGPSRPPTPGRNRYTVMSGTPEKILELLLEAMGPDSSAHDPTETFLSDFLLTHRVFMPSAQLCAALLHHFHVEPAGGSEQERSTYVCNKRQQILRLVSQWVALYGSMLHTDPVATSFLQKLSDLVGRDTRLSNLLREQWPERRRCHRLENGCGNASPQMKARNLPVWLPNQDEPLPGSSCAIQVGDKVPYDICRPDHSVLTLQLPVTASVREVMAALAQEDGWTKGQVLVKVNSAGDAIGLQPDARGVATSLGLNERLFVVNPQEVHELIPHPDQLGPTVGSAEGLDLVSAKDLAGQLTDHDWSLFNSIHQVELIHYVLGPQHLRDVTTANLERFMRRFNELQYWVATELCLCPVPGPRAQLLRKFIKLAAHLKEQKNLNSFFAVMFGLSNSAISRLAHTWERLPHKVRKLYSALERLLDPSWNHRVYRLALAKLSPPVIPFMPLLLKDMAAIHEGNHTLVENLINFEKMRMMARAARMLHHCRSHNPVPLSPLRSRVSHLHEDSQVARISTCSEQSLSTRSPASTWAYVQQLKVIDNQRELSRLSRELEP
# [2] = biological target: T2, Epac1 (Homo sapiens, UniProt O95398); assay: Rap1-GTP in HEK293 cells transfected with Epac1; assay type: cell-based; set-up: expressed in transfected cells; host or cells: HEK293; conditions: 10 min; for inhibition of Epac1-induced Rap1 activation: 20 μM, 30 min preincubation, 8-CPT-AM 10 μM
# T2 sequence (O95398 1-923): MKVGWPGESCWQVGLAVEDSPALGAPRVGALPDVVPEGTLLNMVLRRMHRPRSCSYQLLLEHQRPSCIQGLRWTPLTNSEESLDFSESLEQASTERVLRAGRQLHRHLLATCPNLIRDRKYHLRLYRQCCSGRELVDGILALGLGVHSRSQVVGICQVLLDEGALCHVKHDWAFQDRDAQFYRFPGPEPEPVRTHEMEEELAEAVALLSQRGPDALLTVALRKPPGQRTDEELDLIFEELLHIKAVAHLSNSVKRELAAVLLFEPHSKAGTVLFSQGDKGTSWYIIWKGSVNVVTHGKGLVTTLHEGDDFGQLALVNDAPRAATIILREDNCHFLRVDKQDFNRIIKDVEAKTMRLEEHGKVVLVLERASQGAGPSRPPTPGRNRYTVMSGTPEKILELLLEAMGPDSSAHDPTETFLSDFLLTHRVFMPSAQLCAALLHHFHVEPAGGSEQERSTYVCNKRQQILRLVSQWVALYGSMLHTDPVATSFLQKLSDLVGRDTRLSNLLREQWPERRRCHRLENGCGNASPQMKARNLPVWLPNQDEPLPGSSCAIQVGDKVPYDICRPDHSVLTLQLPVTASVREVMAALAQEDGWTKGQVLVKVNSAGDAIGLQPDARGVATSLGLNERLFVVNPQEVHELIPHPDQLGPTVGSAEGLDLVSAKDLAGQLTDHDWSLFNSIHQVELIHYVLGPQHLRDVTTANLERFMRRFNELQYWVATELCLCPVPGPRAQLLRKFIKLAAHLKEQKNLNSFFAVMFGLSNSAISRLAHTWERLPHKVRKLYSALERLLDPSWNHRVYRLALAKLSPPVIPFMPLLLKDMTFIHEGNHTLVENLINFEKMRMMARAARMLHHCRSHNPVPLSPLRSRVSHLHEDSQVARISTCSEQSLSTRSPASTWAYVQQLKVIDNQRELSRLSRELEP
# Experimental: FIGS. 9-13. Amounts of Rap1-GTP (n=5 in each group, mean±S.E.M) were determined in HEK293 cells transfected with Epac1 (FIGS. 9-11), Epac2A (FIG. 12) or Epac2B (FIG. 13). Cells were preincubated or not with AM-001 (FIGS. 9, 12, and 13), AM-002 (FIG. 10) or AM-003 (FIG. 11) (20 μM, 30 min) and were then treated or not with 8-CPT-AM (10 μM for Epac1 activation and 20 μM for Epac2A activation) or S-220 (50 μM for Epac2B activation) for 10 min. ESI-05 was used as positive control of Epac2A inhibition. Representative immunoblots are shown. […], *[…], ***p<0.001, ****p<0.0001, versus indicated values, one way ANOVA, Bonferroni comparison test.
# Human Embryonic Kidney cells line (HEK293): HEK293 cells were maintained is in minimal essential medium with FBS (10%) and penicillin-streptomycin (1%). All media, sera, and antibiotics used in cell culture were purchased from Invitrogen.
# The human Epac1/Epac2 expression vector was a gift from Dr J. L. Bos. Cells were transfected using Lipofectamine 2000 (Invitrogen) according to the manufacturer's instructions. HEK293 cells were maintained in MEM with FBS (Foetal Bovine Serum; 10%) and penicillin-streptomycin (1%). All media, sera and antibiotics used in cell culture were purchased from Invitrogen (Cergy Pontoise, France). Transient transfection experiments were performed with Lipofectamine 2000 (Invitrogen Life Technologies) in the presence of various amounts of plasmid constructs according to the manufacturer's instructions.
# This cell line is commonly used for the evaluation of Epac pharmacological modulators on the cellular signaling of ectopically expressed Epac1 and Epac2 isoforms. […] Next, the inventors investigated the effect of 8-CPT-AM on the two Epac2 splice variants, Epac2A and Epac2B (FIGS. 12-13).
# [3] = test system: mice; conditions: single i.v. bolus 8 mg/kg 5 min before reperfusion; 45 min occlusion, 24 h reperfusion
# [4] = biological target: T3, Epac1 (Homo sapiens, UniProt O95398); assay: biochemical
# T3 sequence (O95398 191-923 limits assumed): T1 sequence (O95398 191-923 T823A/F824A limits assumed) with A633T, A634F
# From the text: (§1) FIGS. 4-8. […] Variations of relative fluorescence units (RFU) were studied as a function of time and fitted to single exponentials.
# [5] = biological target: T4, Epac2 (Homo sapiens, UniProt Q8WZA2); assay: Epac GEF activity assay (b-GDP dissociation from recombinant Rap1), Epac2; assay type: biochemical
# T4 sequence (Q8WZA2 1-867 isoform Q8WZA2-3): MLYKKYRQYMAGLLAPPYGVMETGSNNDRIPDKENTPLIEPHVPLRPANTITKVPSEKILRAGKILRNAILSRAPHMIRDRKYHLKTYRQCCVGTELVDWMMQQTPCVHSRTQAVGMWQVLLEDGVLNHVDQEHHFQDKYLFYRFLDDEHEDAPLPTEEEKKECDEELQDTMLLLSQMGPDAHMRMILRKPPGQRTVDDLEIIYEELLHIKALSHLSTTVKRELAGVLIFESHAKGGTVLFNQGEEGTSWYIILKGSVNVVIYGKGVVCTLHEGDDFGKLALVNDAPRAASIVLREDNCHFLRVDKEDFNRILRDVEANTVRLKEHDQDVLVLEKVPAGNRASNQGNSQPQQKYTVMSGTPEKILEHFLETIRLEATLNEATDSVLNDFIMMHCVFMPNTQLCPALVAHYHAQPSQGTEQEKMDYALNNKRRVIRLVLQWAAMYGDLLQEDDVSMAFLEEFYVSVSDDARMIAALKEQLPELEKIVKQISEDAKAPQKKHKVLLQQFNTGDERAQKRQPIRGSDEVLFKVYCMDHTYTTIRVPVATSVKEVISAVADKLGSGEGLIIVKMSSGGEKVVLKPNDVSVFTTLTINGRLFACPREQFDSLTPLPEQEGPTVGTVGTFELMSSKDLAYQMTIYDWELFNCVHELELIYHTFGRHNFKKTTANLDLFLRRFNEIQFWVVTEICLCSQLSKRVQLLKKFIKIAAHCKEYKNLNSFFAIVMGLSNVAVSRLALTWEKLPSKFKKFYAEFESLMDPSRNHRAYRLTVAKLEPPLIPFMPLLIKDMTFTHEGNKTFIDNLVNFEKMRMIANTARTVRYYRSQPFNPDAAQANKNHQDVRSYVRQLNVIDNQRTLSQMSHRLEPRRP
# From the text: as §1
Structure (SMILES),"inhibitory activity on Epac1 activation, structure-activity comments [1]",remaining activity at 20 µM [1],further results
"C[C@@H]1CCc2c(cc(Br)c(F)c2Br)N1C=O [(R)-CE3F4, reference compound]",–,–,"IC50 (half-maximal inhibitory concentration), BRET sensor ([1]; not modified by increasing concentrations of cAMP): lower IC50 than AM-001; ratio of infarct size to area-at-risk [3]: failed to reduce infarct size; effect on Epac1 GEF (exchange) activity ([4]; 30 μM Sp-8-CPT, 20 μM inhibitor): reduced"
Nc1c(C(=O)Nc2ccccc2)sc2nc(-c3cccs3)cc(-c3ccc(F)cc3)c12 [AM-005],no significant effect on the inhibitory potency,46.9%,–
"CO[C@@H]1[C@@H]2OP(=O)(OCOC(C)=O)OC[C@H]2O[C@H]1n1c(Sc2ccc(Cl)cc2)nc2c(N)ncnc21 (stereo partly drawn) [8-CPT-AM, 8-(4-chlorophenylthio)-2′-O-methyladenosine-3′,5′-cyclic monophosphate, acetoxymethyl ester]",–,–,"activation of Rap1 by agonist ([2]; cells overexpressing Epac1, 10 μM): robust activation of Rap1"
Nc1c(C(=O)Nc2ccccc2)sc2nc(-c3cccs3)cc(-c3ccccc3)c12 [AM-004],no significant effect on the inhibitory potency,47%,–
"Nc1ncnc2c1ncn2[C@@H]1O[C@@H]2COP(=O)(O)O[C@H]2[C@H]1O [cAMP, cyclic AMP, reference compound]",–,–,EC50 [5]: 2.8 ± 1.1 µM
"COC1C2OP(O)(=S)OCC2OC1n1c(Sc2ccc(Cl)cc2)nc2c(N)ncnc21 (stereo not drawn) [Sp-8-CPT, 8-(4-Chlorophenylthio)-2′-O-methyladenosine-3′,5′-cyclic monophosphorothioate, Sp-isomer]",–,–,"EC50 [5]: 5.6 ± 1.1 µM; EC50 [4]: 7.5 ± 1.1 µM; Vmax of Sp-8-CPT-activated Epac1 relative to cAMP-activated Epac1 [4]: 2.5 fold; apparent affinity of Epac1, Sp-8-CPT relative to cAMP ([4]; higher for Sp-8-CPT than for cAMP): 1.7 times"

# Now from value to compound, other results behind:
"inhibitory activity on Epac1 activation, structure-activity comments [1]",remaining activity at 20 µM [1],Structure (SMILES),further results
decreased but not abolished,82.4%,Nc1c(C(=O)Nc2ccc(F)cc2)sc2nc(-c3cccs3)ccc12 [AM-009],–
abolished the inhibitory effect,100%,"CC(C)NC(=O)c1sc2nc(-c3cccs3)cc(-c3ccc(F)cc3)c2c1N [AM-003, reference compound]",inhibition of Epac1-induced Rap1 activation [2]: inactive
–,82.2%,Cc1cc(-c2ccccc2)c2c(N)c(C(=O)Nc3ccccc3)sc2n1 [AM-008],–
–,80.5%,Nc1c(C(=O)Nc2ccc(F)cc2)sc2nc3c(c(-c4ccccc4)c12)CCCC3 [AM-007],–
low activity,101%,"Cc1cc(C)c2c(N)c(C(=O)Nc3ccc(F)cc3)sc2n1 [AM-010, reference compound]",–
no significant inhibitory activity,93.6%,"O=c1c2sc3nc(-c4cccs4)cc(-c4ccccc4)c3c2ncn1-c1ccccc1 [AM-002, reference compound]",inhibition of Epac1-induced Rap1 activation [2]: inactive
decreased but not abolished,74%,NC(=O)c1sc2nc(-c3cccs3)cc(-c3ccc(F)cc3)c2c1N [AM-006],–
